In patent US20220257764A1, “USE OF DIKETONE COMPOUND IN PHOTODYNAMIC THERAPY OR DIAGNOSIS” (BEIJING WHOLESOMETECH CO., LTD., priority 2019, published 2022):
Where two headings read alike, the source gives them in different places.

Key:
Format in all cases: cell-based
[1] = system: human immortalized keratinocyte (Hacat cells); experiment: MTT cytotoxicity to normal cells, Experimental Example 5; conditions: given under red light, 630-650 nm, 110 mW/cm^2, 900 s, 3 h incubation
Method: (1) Logarithmic phase cells were collected, the concentration of a cell suspension was adjusted, the cell suspension was added to a cell culture plate in a dose of 100 μL per well, and the cells were then added to a cell culture plate so that the density of the cells to be tested was adjusted to 1000-10000 wells (edge wells were filled with sterile PBS). […] Generally, the drug in 5 to 7 gradients was added in a dose of 100 μL per well, and 3 to 5 wells were set for each concentration of a drug. […] Cells in the experimental photosensitizer-light irradiation group were incubated for 15 min and then irradiated with light. […] After light irradiation, the cells were washed with PBS. […] After light irradiation, the cells were washed with PBS. […] If the drug could react with the MTT, centrifuging was carried out first, and then the culture solution was discarded and the cells were carefully washed twice or three times with PBS, and then the culture solution containing MTT was added. (6) The culture was terminated and the culture solution in the wells was carefully removed. (7) Dimethyl sulfoxide was added in a dose of 150 μL per well, and the plate was then shaken on a shaker at a low speed for 10 min to fully dissolve crystals. The absorbance at OD 490 nm of each well was measured with enzyme-linked immunoassay. […]

SW480 colon cancer cells = experiment: MTT toxicity to tumor cells, under light and in the dark; conditions: Homo sapiens
Method: (§1) In this experimental example, the toxicity of the compound to tumor cells was tested by an MTT method including the following specific steps.
(§2) (1) Logarithmic cells were collected, the concentration of a cell suspension was adjusted, the cell suspension was added to a cell culture plate in a dose of 100 μL per well, and the cells were then added to a cell culture plate so that the density of the cells to be tested was adjusted to 1000-10000 wells (edge wells were filled with sterile PBS).
(§3) (2) The cells were incubated at 37° C. in the presence of 5% CO2 until the cells in a single layer covered the bottom of each well (96-well flat-bottom plate), and a drug in concentration gradients was added. Generally, the drug in 5 to 7 gradients was added in a dose of 100 μL per well, and 3 to 5 multi-wells were set.
(§4) (3) The cells were randomly divided into treated groups under light and treated groups in the dark, incubated at 37° C. in the presence of 5% CO2 for 16 h to 48 h, and observed with an inverted microscope.
(§5) (4) The cells were irradiated for 900 s with a laser having a wavelength of 450 nm to 480 nm (at an intensity of 110 mW/cm^2), and the final light dose was about 100 J/cm^2. After light irradiation, the cells were washed with PBS.
(§6) (5) An MTT solution (5 mg/ml, 0.5% MTT) was added in a dose of 20 μL per well to further incubate the cells for 4 h. If the drug could react with the MTT, centrifuging was carried out first, and then the culture solution was discarded and the cells were carefully washed twice or three times with PBS, and then the culture solution containing MTT was added.
(§7) (6) The culture was terminated and the culture solution in the wells was carefully removed.
(§8) (7) Dimethyl sulfoxide was added in a dose of 150 μL per well, and the plate was then shaken on a shaker at a low speed for 10 min to fully dissolve crystals. The absorbance at OD 490 nm of each well was measured with enzyme-linked immunoassay.
(§9) (8) Zero adjustment wells (medium, MTT, dimethyl sulfoxide) and control wells (cells, dissolving media of the same concentration, culture solution, MTT, dimethyl sulfoxide) were set at the same time.

Hela cells = experiment: as above; conditions: Homo sapiens
Method: as §1, §2, §3, §4, §5, §6, §7, §8, §9

Escherichia coli = experiment: Inhibitory effect on bacteria (colony counting), under light and in the dark
Method: A single Escherichia coli colony was transferred from a solid Luria Bertani (LB) agar plate to 5 ml liquid LB medium and incubated at 37° C. for 12 h. Bacteria were collected by centrifugation (7000 rpm, 1 min) and washed with PBS buffer three times. The supernatant was discarded, and the remaining Escherichia coli cells were resuspended in the PBS buffer. The bacterial suspension was adjusted to make its optical density (OD600) to 1.0. The suspension was then diluted (5 times) with PBS buffer. The diluted Escherichia coli cell suspension was incubated in the dark at 37° C. for 15 min in the presence of a photosensitizer (diketone compound) solution with a concentration of 60 mM, and then irradiated for 200 s under a 15 mW/cm^2 laser light (with a wavelength of 450 nm to 480 nm and in the final light dose of about 3 J cm^2), and after the irradiation the bacterial suspension was serially diluted (10^4 times) with PBS buffer. 100 μL of the diluted bacterial Escherichia coli cell was dispersed on a solid LB agar plate and incubated at 37° C. for 12 h to 16 h, and colonies formed were counted. In the meanwhile, a treated group in the dark and an untreated group in the dark were set; the inhibition rate was determined by dividing the number of colony forming units (cfu) killed in the treated group under light or the treated group in the dark by the number of colony forming units (cfu) killed in the untreated group in the dark.

B16 melanoma cell = experiment: MTT toxicity to tumor cells, under light and in the dark; conditions: Mus musculus, under light, 450-480 nm laser, 110 mW/cm^2, 900 s
Method: as §1, §2, §3, §4, §5, §6, §7, §8, §9

[2] = SW480, under light, 450-480 nm laser, 110 mW/cm^2, 900 s
[3] = read-out: Inhibition rate in the dark
[4] = read-out: Inhibition rate under light
[5] = under light, 450-480 nm laser, 110 mW/cm^2, 900 s
[6] = 60 mM, 450-480 nm laser, 15 mW/cm^2, 200 s, read-out: Inhibition rate under light
[7] = 60 mM, in the dark, read-out: Inhibition rate in the dark

Row | SMILES | cytotoxicity to Hacat cells [1] | IC50 (SW480 colon cancer cells; [2]) | IC50 (Hela cells; in the dark) | inhibition at 60000 µM (Escherichia coli; [3]) | inhibition at 60000 µM (Escherichia coli; [4]) | IC50 (Hela cells; [5]) | IC50 (B16 melanoma cell) | inhibition at 60000 µM (Escherichia coli; [6]) | inhibition at 60000 µM (Escherichia coli; [7]) | IC50 (SW480 colon cancer cells; SW480, in the dark)
1 | NCC(=O)CCC(=O)O [ALA, 5-α aminolevulinic acid, reference compound] | relatively high cytotoxicity |  |  |  |  |  |  |  |  | 
2 | CCC(=O)C(=O)CC [BJMU-201] |  | 63.9 ± 10.5 µM | 59.9 ± 9.9 µM | 4.9% | 58% |  |  |  |  | 
3 | CCCC(=O)C(C)=O [BJMU-202] |  | 2.5 ± 0.5 µM |  |  |  | 2.6 ± 0.6 µM | 2.9 ± 0.1 µM | 90 ± 3% | 8.6% | 
4 | CC(=O)C(=O)CBr [BJMU-203] |  | 3.1 ± 0.5 µM |  |  |  | 2.8 ± 1.1 µM | 2.7 ± 0.9 µM | 93% | 4.5% | 
5 | CCCCC(=O)C(C)=O [BJMU-205] |  | 6.4 ± 1.9 µM |  |  |  | 5.7 ± 1.7 µM | 6.6 ± 1.8 µM | 80% | 2% | 
6 | CC(=O)C(=O)CC(C)C [BJMU-206] |  | 144 ± 31.9 µM |  |  |  | 141 ± 37.4 µM | 144 ± 32.5 µM | 46% | 11.5% | 
7 | O=C(O)C(=O)c1ccccc1 [BJMU-207] |  | 99.2 ± 25.7 µM |  |  |  | 93.3 ± 20.3 µM | 96.6 ± 26.3 µM | 64% | 7.3% | 
8 | CC(=O)C(=O)O [BJMU-208] |  | 173 ± 10.8 µM |  |  |  | 162 ± 10.1 µM | 174 ± 10.9 µM | 45% | 8% | 
9 | O=C(C(=O)c1ccccc1)c1ccccc1 [BJMU-209] |  | 7800 ± 480 µM | 8200 ± 530 µM | 9.5% | 26% |  |  |  |  | 
10 | O=C(C(=O)c1ccncc1)c1ccncc1 [BJMU-210] |  | 9600 ± 600 µM |  |  |  | 9900 ± 700 µM | 9800 ± 700 µM | 24% | 6.4% | 
11 | O=C(C(=O)c1ccc(Br)cc1)c1ccc(Br)cc1 [BJMU-211] |  | 3200 ± 230 µM |  |  |  |  |  |  |  | 95000 ± 21300 µM
12 | O=C(C(=O)c1ccc(F)cc1)c1ccc(F)cc1 [BJMU-212] |  | 2800 ± 210 µM |  |  |  |  |  |  |  | 99000 ± 15800 µM
13 | COc1ccc(C(=O)C(=O)c2ccc(OC)cc2)cc1 [BJMU-213] |  | 6600 ± 370 µM | 6400 ± 400 µM |  |  |  |  |  |  | 
14 | O=C(C(=O)c1ccco1)c1ccco1 [BJMU-214] |  | 8900 ± 500 µM |  |  |  | 8800 ± 480 µM | 9000 ± 510 µM | 23% | 5.6% | 
